What was measured:
Format in all cases: cell-based
[1] = test system: Escherichia coli nfsB (NfsB) or human cytochrome P450 reductase (CYPOR); test: Multiplexed reporter detection with compounds 11 and 13 in MDA-231 WT, NfsB and CYPOR cells (fluorescence microscopy); conditions: fluorescent microscope images, MDA-231 WT/NfsB/CYPOR
Excerpt: Compounds 11 and 13 (as representative nitro-substituted aromatic compounds of the present invention) were utilized to exemplify the ability to detect individual cell populations. […] When the data were collated it was evident that the fluorescent output of each cell population could be identified with minimal interference from the other reductases-generated fluorescent molecules. […] To establish the single cell specificity of compounds 11 and 13 for detection of activities in a mixed (co-cultured) cell population, cells were examined by fluorescent microscopy following concurrent exposure to compounds 11 and 13. MDA-231 wild-type cells or cells expressing Escherichia coli nfsB and human cytochrome P450 reductase were mixed 1:1:1, seeded onto glass coverslips (15,000 cells/well in 0.1 mL αMEM+10% FCS+P/S) and allowed to attach overnight. Compound 11 and 13 were diluted into αMEM (from DMSO stock solutions) and 0.1 mL was added to achieve a final concentration of 10 μM and 100 μM respectively. Samples were incubated at 37° C. for 45 minutes, washed three times in PBS and images were acquired on a Nikon TE-2000 inverted fluorescence microscope. […] This illustrates that multiple independent outputs can be recorded from a single sample providing appropriate excitation and emission wavelengths are utilized. […]

[2] = biological target: T1, E. coli nitroreductase (nfsB) (Escherichia coli, UniProt P38489); test: Entrapment of fluorescent products within nitroreductase expressing HCT116 cells; conditions: washed; for cellular retention of fluorescence in nitroreductase expressing but not parental HCT116 cells: 10 μM for 1.5 hr, 6 hours post-exposure
T1 construct: expressed in transfected cells; host or cells: MDA231 (MDA-231) human breast cancer cell line, clonal derivative MDA231 NTR
Description: The human colorectal cancer cell line (HCT116^WT) and a clonal derivative (HCT116^NTR) engineered to express the reporter gene E. coli nitroreductase (nfsB) under the control of a constitutive promoter were seeded onto glass coverslips at an equal density (50:50). Cells were equilibrated to 37° C., 5% CO2, and compound 1 and 13 was added to a final concentration of 100 μM for 1 hr. Cells were washed free of compound after 1 hour and fluorescence was monitored as a function of time (FIG. 8).
In further screening (FIG. 9), the human colorectal cancer cell line (HCT116^WT) and a clonal derivative (HCT116^NTR) engineered to express the reporter gene E. coli nitroreductase (nfsB) under the control of a constitutive promoter were seeded separately into a 96-well glass plate. Cells were equilibrated to 37° C., 5% CO2, and compounds were added to a final concentration of 10 μM for 1.5 hr. Cells were washed free of compound and fluorescence was monitored 6 hours post-exposure. […] The image has been rendered monochromatic for the purposes of publication quality.

[3] = biological target: T2, Escherichia coli nfsB (NfsB) (Escherichia coli, UniProt P38489); test: Multiplexed reporter detection with compounds 4 and 16 in MDA-231 cells expressing nfsB; conditions: nfsB and CYPOR cells mixed 1:1, 10 μM, 45 minutes, microscopy
T2 construct: expressed in transfected cells; host or cells: MDA231 (MDA-231) human breast cancer cell line, clonal derivative MDA231 NTR
Description: (§1) Compounds 4 and 16 (as representative nitro-substituted aromatic compounds of the present invention) were utilized to exemplify the ability to detect individual cell populations. […] 30,000 cells were seeded into a plastic 96-well plate in a volume of 0.1 mL. After 2 h attachment samples were incubated with either 200 μM 16 or 100 μM 4 by dilution of DMSO stock solutions into culture medium and addition of 0.1 mL directly into wells. Plates were incubated for 4 h before being read on a fluorescent platereader at Ex/Em 355/460 and 485/535. Values represent the fluorescence in the presence of cells—blank (fluorescence in the absence of cells). When the data were collated it was evident that the fluorescent output of each cell population could be identified with minimal interference from the other reductases-generated fluorescent molecules. […] To establish the single cell specificity of compounds 4 and 16 for detection of activities in a mixed (co-cultured) cell population, cells were examined by fluorescent microscopy following concurrent exposure to compounds 4 and 16. […] Samples were incubated at 37° C. for 45 minutes, washed three times in PBS and images were acquired on a Nikon TE-2000 inverted fluorescence microscope. […]

[4] = biological target: T3, human cytochrome P450 reductase (CYPOR) (Homo sapiens, UniProt P16435); test: Multiplexed reporter detection with compounds 4 and 16 in MDA-231 cells expressing CYPOR
T3 construct: expressed in transfected cells; host or cells: MDA231 (MDA-231) human breast cancer cell line, clonal derivative MDA231 P450R
T3 sequence (P16435 1-677): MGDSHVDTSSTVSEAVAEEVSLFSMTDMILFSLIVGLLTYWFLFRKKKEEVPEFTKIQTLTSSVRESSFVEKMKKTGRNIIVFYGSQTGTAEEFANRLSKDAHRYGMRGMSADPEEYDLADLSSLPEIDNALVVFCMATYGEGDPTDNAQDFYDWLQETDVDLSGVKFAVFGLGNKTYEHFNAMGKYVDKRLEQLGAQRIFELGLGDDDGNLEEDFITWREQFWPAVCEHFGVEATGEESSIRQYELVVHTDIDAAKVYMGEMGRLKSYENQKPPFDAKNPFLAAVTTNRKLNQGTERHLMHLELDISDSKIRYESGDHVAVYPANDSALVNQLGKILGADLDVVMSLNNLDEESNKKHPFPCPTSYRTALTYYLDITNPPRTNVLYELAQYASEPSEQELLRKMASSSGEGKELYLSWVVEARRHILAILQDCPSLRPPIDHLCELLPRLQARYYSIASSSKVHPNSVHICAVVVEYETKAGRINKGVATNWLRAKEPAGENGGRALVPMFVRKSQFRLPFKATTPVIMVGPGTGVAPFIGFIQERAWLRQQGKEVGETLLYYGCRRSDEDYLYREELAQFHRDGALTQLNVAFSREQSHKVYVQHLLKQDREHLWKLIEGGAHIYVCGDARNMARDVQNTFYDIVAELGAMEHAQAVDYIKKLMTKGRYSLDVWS
Description: as §1

T1 sequence (P38489 whole entry): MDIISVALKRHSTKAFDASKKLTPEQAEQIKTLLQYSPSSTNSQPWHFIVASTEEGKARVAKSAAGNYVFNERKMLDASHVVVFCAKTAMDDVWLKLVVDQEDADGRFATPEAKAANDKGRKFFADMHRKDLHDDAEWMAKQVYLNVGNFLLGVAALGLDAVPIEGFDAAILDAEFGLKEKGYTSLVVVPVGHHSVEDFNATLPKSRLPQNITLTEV
T2 sequence (P38489 whole entry): as above

`CN(C)CCCCN1C(=O)c2cccc3cc([N+](=O)[O-])cc(c23)C1=O` [Compound 11, 2-[4-(Dimethylamino)butyl]-5-nitro-1H-benzo[de]isoquinoline-1,3(2H)-dione] was tested, and the “fluorescent output at Ex/Em 485/535 detecting nfsB and CYPOR enzyme activities” value [1] was “gave fluorescent output”.

With `COC(=O)Cn1ccc(=O)c2cc([N+](=O)[O-])ccc21` [Compound 13, Methyl (6-nitro-4-oxo-1(4H)-quinolinyl)acetate] the “cellular retention of fluorescence in nitroreductase expressing but not parental HCT116 cells” value [2] was “possessing cellular retention properties”, the “retention of fluorescence in cells after wash” value ([2]; HCT116 WT:HCT116 NTR 50:50 co-culture, 100 μM for 1 hr, by 4 hours) was “still retained” and the “fluorescent output at Ex/Em 355/460 detecting nfsB and CYPOR enzyme activities” value [1] was “gave fluorescent output”.

For `CN(C)CCCOc1ccnc2cc([N+](=O)[O-])ccc12` [Compound 14, N,N-dimethyl-3-[(7-nitro-4-quinolinyl)oxy]-1-propanamine], the “cellular retention of fluorescence in nitroreductase expressing but not parental HCT116 cells” value [2] was “possessing cellular retention properties” and the “fluorescent emission colour on co-registration image (FITC filter set)” value [3] was “green”.

In the case of `CN(C)CCCNc1ncnc2cccc([N+](=O)[O-])c12` [Compound 16, N^1,N^1-dimethyl-N^3-(5-nitro-4-quinazolinyl)-1,3-propanediamine], the “fluorescent output at Ex/Em 355/460 detecting human CYPOR activity” value ([4]; 200 μM, 4 h, platereader, MDA-231 WT/NfsB/CYPOR) is reported as “gave fluorescent output” and the “fluorescent emission colour on co-registration image (DAPI filter set)” value ([4]; nfsB and CYPOR cells mixed 1:1, 300 μM, 45 minutes, microscopy) is reported as “blue”.

Reference: patent US20100173332A1, “Method for the Fluorescent Detection of Nitroreductase Activity Using Nitro-Substituted Aromatic Compounds” (Auckland Uniservices Limited, priority 2006, published 2010)
